In publication PMC9241644, “Evaluation of Novel Quorum Sensing Inhibitors Targeting Auto-Inducer 2 (AI-2) for the Control of Avian Pathogenic Escherichia coli Infections in Chickens” (Microbiology Spectrum, 2022):

System: Rif^R APEC O78
Experiment: Efficacy of QSIs in APEC-infected chickens (oral gavage pilot)
Assay type: in vivo, Escherichia coli
Conditions: Table S1, oral gavage pilot
Experimental: The chicken experiment was carried out using 1-day-old broiler chickens (Mayer Hatchery, OH, USA). Feed and water were given ad libitum. Chickens (n = 6/group) were administered with the QSIs (QSI-1, QSI-2, QSI-5 − 8, QSI-10, ChemBridge, San Diego, CA); previously designated as C1, C2, C5, C6, C7, C8, C10 ([17]) using oral gavage. These compounds were selected based on their high efficacy in in vitro studies and the doses correspond to 30X of the initial in vitro screening concentration ([17]). The QSIs were suspended in dimethyl sulfoxide (DMSO; used as a vehicle) and administered once daily for 5 successive days (starting from day 4 to day 8). The first dose was administered 1 day before the challenge, followed by the second dose on the challenge day (2 h before challenge), followed by three additional doses on subsequent days. Feeders were removed 1 h prior to the treatment and replaced 1 h after the treatment. Chickens were challenged subcutaneously (s/c) on day 5 with Rif^R APEC O78 (1 × 10^7 CFU/bird) in PBS using syringe (27 gauge, 0.5 in.). The challenge dose, which […], was chosen based on preliminary experiments conducted with different infection routes (subcutaneous s/c, intra-tracheal and intra-airsacs) and different doses (10^6, 10^7, and 10^8 CFU/chicken). […] Therefore, we selected this challenge dose and route for evaluation of QSIs in chickens ([34]). The positive (PC; infected with APEC O78 and DMSO treated) and negative (NC; non-infected and non-treated) control groups were included.
Chickens were monitored for clinical signs for 8 DPI. Any chickens moribund during this period were humanely euthanized and necropsied to determine bacterial load in the internal organs (liver, heart, lung, and kidney). Internal organs were aseptically collected, weighed and suspended in 1× PBS, the amount of PBS added was adjusted based on the organ size to make a suspension, the organ size and amount of PBS added were included in the final calculation of the CFU. The samples were homogenized, serially diluted 10-fold, plated on MacConkey agar (Remel, CA, USA) containing 50 μg/mL rifampicin, and incubated at 37°C for 24 h to determine the CFU/g. Pathological lesions severity in internal organs (pericarditis, perihepatitis, airsacculitis, and lung congestion) was scored as described previously ([21], [59]). At 8 DPI, the remaining chickens were humanely euthanized and necropsied, lesions were scored, and the APEC load was quantified in internal organs as described above.

Question: With `Cc1ccc(CN2CCN(CCCc3ccccc3)CC2)cc1` [QSI-5] as the compound, how does the “Average lesion severity, Lung” value (lesion score, PC 1.25) read?
Answer: The value was 0.17.

Question: What about the “Average lesion severity, Liver” value (lesion score, PC 1.75) of the same compound?
Answer: Its value is 0.33.

Question: And the “Average lesion severity, Airsac” value (lesion score, PC 2.00)?
Answer: The value was 0.17.

Question: What about the “Average lesion severity, Heart” value (lesion score, PC 2.25) of the same compound?
Answer: Its value is 0.33.

Question: What about the “Mortality rate % (Nr.)” value (n = 6/group, 8 DPI, PC 66.6 (4/6)) of the same compound?
Answer: Its value is 0%.

Question: What about the “Average APEC load, Liver” value (PC 5.95) of the same compound?
Answer: The value was 0.72 Log CFU/g of tissue.

Question: What about the “Average APEC load, Heart” value (PC 5.98) of the same compound?
Answer: The value was 0.58 Log CFU/g of tissue.

Question: What about the “Average APEC load, Kidney” value (PC 6.81) of the same compound?
Answer: The value was 0.67 Log CFU/g of tissue.

Question: What about the “Average APEC load, Lung” value (PC 6.83) of the same compound?
Answer: The value was 0.75 Log CFU/g of tissue.
